# Results: patent US9107814B2, “Micelle composition of polymer and passenger drug” (Wisconsin Alumni Research Foundation, priority 2005, dated 2015)
# Where two headings read alike, the source gives them in different places.
# Tests used:
# [1] = paclitaxel prodrug loading and sizing of PEG-b-PCL micelles; type: physicochemical; settings: for Solubilized / prodrug w/w % / prodrug:caprolactone: 20% w/w prodrug loading in 0.5-mM PEG-b-PCL micelles; for Diameter (intensity): DLS, PEG-PCL micelles prepared at 20% w/w drug; for Solubilized (in parentheses): after evaporation to 25% of original volume and refiltration (0.22-μm)
# Protocol: The organic solvent was then removed by stirring under an air purge. Where stated, samples were further concentrated by prolonged evaporation under an air purge. After removing the organic solvent, PEG-b-PCL micelles were passed through a 0.22-μm polyestersulfone filter to remove insoluble material and unincorporated drug. In a typical experiment, […] of PEG-b-PCL was dissolved in 0.75 ml of dry acetone and added dropwise (50 μL/min) to 2 ml of ddH2O yielding 0.5-mM PEG-b-PCL micelles after removing the volatile organic solvent.
# The incorporation of prodrugs into PEG-b-PCL micelles was verified by equivalent retention times in UV and RI chromatographs from gel permeation chromatography. PEG-b-PCL micelles were injected on an OHpak SB-806M GPC column (20-μL injections, 0.5-mM PEG-b-PCL, 0.75 ml/min of ddH2O, 10° C.) (Shodex, Kawasaki, Japan) and detected by refractive index (RI) and UV absorbance (232 nm). Prodrug loading into PEG-b-PCL micelles was quantitatively determined by reverse-phase HPLC (Alltech Econosphere 3-μm 4.6×50 mm) using a 0.01% (v/v) trifluoroacetic acid—ACN gradient (40-100% ACN, 50° C., 232-nm detection). Hydrodynamic diameters of PEG-b-PCL micelles were determined by dynamic light scattering (DLS) (NICOMP 380 ZLS, Particle Sizing Systems, Santa Barbara, Calif.). Data were analyzed by intensity-weighted Gaussian distribution fitting (NICOMP version 1.76). Measurements were made for a minimum of 10 min or at least 100×10^5 counts in channel 1.
# [2] = octanol-water partition coefficient by microemulsion electrokinetic chromatography (MEEKC); settings: for log Po/w: pH 7.00 running buffer, ± standard deviation (n = 3)
# Protocol: (§1) The octanol-water partition coefficient of geldanamycin was determined by microemulsion electrokinetic chromatography.
# (§2) Running buffer was prepared by titration of 25-mM sodium phosphate monobasic with 50-mM sodium tetraborate to pH 7.00, and 1.44 g of sodium dodecyl sulfate, 6.49 g of 1-butanol, and 0.82 g of heptane were made up to 100 ml with phosphate-borate buffer. The running buffer was ultrasonicated for 30 min in a closed 250-ml flask in ice water (G112SP1 Special Ultrasonic Cleaner, Laboratory Supplies Company Inc., Hicksville, N.Y.). […] Compounds and standards (n=3) were dissolved in the running buffer (0.05 mg/ml) with 0.5 μL/ml of nitromethane and 0.5 μL/ml of 1-phenyldodecane by ultrasonication (10 min) in a closed tube and centrifuged (16000×g, 3 min) to degas. A BioFocus 3000 capillary electrophoresis system (Bio-Rad, Hercules, Calif.) equipped with a 50-μm ID×37-cm uncoated fused-silica column (Polymicron Technologies LLC, Phoenix, Ariz.) was used for MEEKC experiments. The column was prewashed with 1-M NaOH for 5 min and before runs with 0.1-M NaOH for 1 min, ddH2O for 1 min, and running buffer for 1 min at 100 psi (690 kPa). Running conditions were 10 kV (ca. 30-35 μA, 30 min/run) at 20° C. with 1-psi·s injections (6.9 kPa·s) and detection at 210 and 232 nm. Log Po/w and retention factors, k′, were calculated using the equations:
# (§3) [formula] [formula] where tr, t0, and tme are retention times of the prodrug, nitromethane, and 1-phenyldodecane, respectively. Fitting parameters a and b were determined by linear regression of known standards: pyridine, phenol, benzoic acid, anisole, benzene, toluene, dodecanoic acid, benzopyrene, and pyrene (R^2=0.996, Excel® 2003, Microsoft Corp.).
# [3] = loading of rapamycin and geldanamycin into PEG-DSPE and PEG-PCL micelles; type: physicochemical; settings: micelle solution against water solubility
# Excerpt: The final solvent to water ratio is between about 0.1 and about 5, preferably between about 0.5 and about 4, and more preferably about 2. The micelle solution should be delivered at a rate of between about 2 s/drop and about 60 s/drop, preferably between about 5 s/drop and about 30 s/drop, and more preferably between about 10 s/drop and about 20 s/drop.
# [4] = cited from earlier work
# [5] = preclinical trials; cited from earlier work
# [6] = test system: MDA-MB-468 breast cancer cell line; assay: MTS cytotoxicity assay; type: cell-based; settings: MDA-MB-468, 4 days, drugs in 1% DMSO
# Protocol: Cytotoxicities of the drugs to the MDA-MB-468 breast cancer cell line (ATCC) were determined. Cells are plated at a density of 3000 cells/well into 96 well plates (100 μl/well DMEM medium). After 24 hours, drugs were added dissolved in 1% DMSO. Cells were incubated with drugs for 4 days and toxicity determined using the MTS cytotoxicity assay according to manufacturer's directions (Promega, Madison, Wis.).
# [7] = cited from earlier work; remark: listed apart in the source
# [8] = cited from earlier work; remark: listed apart in the source
# [9] = geldanamycin prodrug loading into and release from PEG-b-PCL micelles; type: physicochemical; settings: for Diff Coef: 0.5 mM PEG-b-PCL (5000:10000 Da) micelles, pH 7.4 phosphate buffer, 37° C., 10000MWCO dialysis; for w/w drug/carrier / Conc: 0.5 mM PEG-b-PCL micelles; for w/w drug/carrier: target 25% wt loading; for Conc: target […]; for time after which almost/substantially all the drug is released: prodrug loaded micelles; for fraction released: prodrug in micelles
# Protocol: Drug diffusion was calculated as described in Forrest and Kwon, 2005 (Journal of Controlled Release).
# PEG-PCL micelles are prepared by the drop-wise addition of geldanamycin prodrug and PEG-PCL dissolved in a miscible solvent, acetone, to vigorously stirred water, followed by removal of the solvent by N2 purge, and 0.2-μm filtration. Alternatively, the solution may be centrifuged to remove unincorporated and aggregated drug. The final solvent to water ratio is between about 0.1 and about 5, preferably between about 0.5 and about 4, and more preferably about 2. The micelle solution should be delivered at a rate of between about 2 s/drop and about 60 s/drop, preferably between about 5 s/drop and about 30 s/drop, and more preferably between about 10 s/drop and about 20 s/drop.
# Protocol for physchem: as §1, §2, §3
structure (smiles),measurement,setting,value
CCCCCC(=O)O[C@H]1C[C@H]2OC[C@@]2(OC(C)=O)[C@H]2[C@H](OC(=O)c3ccccc3)[C@]3(O)C[C@H](OC(=O)[C@H](O)[C@@H](NC(=O)c4ccccc4)c4ccccc4)C(C)=C([C@@H](OC(C)=O)C(=O)[C@]12C)C3(C)C [Prodrug 4a],Solubilized,[1],1.55 ± 0.04 mg/mL
same,prodrug w/w %,[1],17.1%
same,prodrug:caprolactone,[1],36.5 mmol:mol
same,Diameter (intensity),[1],34 ± 4 nm
same,Solubilized (in parentheses),[1],5.1 ± 0.5 mg/mL
same,log Po/w,[2],4.43 ± 0.06
"CCCCCCCCCCCCCCCC(=O)O[C@@H](C(=O)O[C@H]1C[C@@]2(O)[C@@H](OC(=O)c3ccccc3)[C@@H]3[C@]4(OC(C)=O)CO[C@@H]4C[C@H](O)[C@@]3(C)C(=O)[C@H](OC(C)=O)C(=C1C)C2(C)C)[C@@H](NC(=O)c1ccccc1)c1ccccc1 [Prodrug 5c, 2-palmitate-paclitaxel]",Solubilized,[1],1.85 ± 0.05 mg/mL
same,prodrug w/w %,[1],19.8%
same,prodrug:caprolactone,[1],40.0 mmol:mol
same,Diameter (intensity),[1],37 ± 6 nm
same,Solubilized (in parentheses),[1],> 3 mg/mL
same,log Po/w,[2],4.51 ± 0.04
COC1=C2C[C@@H](C)C[C@H](OC)[C@H](O)[C@@H](C)/C=C(\C)[C@H](OC(N)=O)[C@@H](OC)/C=C\C=C(/C)C(=O)NC(=CC1=O)C2=O [Geldanamycin],increase in solubility,[3],300 fold
same,MTD dog,[4],< 100 mg/m^2
same,dose limiting severe hepatotoxicity,[5],4 mg/kg
same,IC50,"[6]; Homo sapiens, 96 h",5 nM
same,water solubility,[7],~1.5 µg/mL
same,chromatographic logP,physchem,~2.77
C=CCNC1=C2C[C@@H](C)C[C@H](OC)[C@H](O)[C@@H](C)/C=C(\C)[C@H](OC(N)=O)[C@@H](OC)/C=C\C=C(/C)C(=O)NC(=CC1=O)C2=O [Prodrug 17-AAG],MTD dog,[4]; in vivo,500 mg/m^2
same,dose limiting toxicity,[8]; Phase I,GI toxicity to be dose limiting
same,suggested Phase II dosing,[8]; from Phase I results,40 mg/m^2
CCCCCCCCCCCCCCCC(=O)OCCNC1=C2CC(C)CC(OC)C(O)C(C)C=C(C)C(OC(N)=O)C(OC)C=CC=C(C)C(=O)NC(=CC1=O)C2=O (stereo not shown) [17-aminoethyl-palmitate-17-demethoxygeldanamycin],IC50,[6],350 nM
same,Diff Coef,[9],3.61 × 10^−20 cm2/s
same,w/w drug/carrier,[9],22 ± 5%
same,Conc,[9],1700 µg/mL
same,time after which almost/substantially all the drug is released,[9],about 8 days
same,fraction released,[9]; time 0 days,0
same,fraction released,[9]; time 0.83 days,0.1695
same,fraction released,[9]; time 2 days,0.2916
same,fraction released,[9]; time 4 days,0.6116
same,fraction released,[9]; time 8 days,0.9528
"CC(=O)O[C@H]1C(=O)[C@@]2(C)[C@H]([C@H](OC(=O)c3ccccc3)[C@]3(O)C[C@H](OC(=O)[C@H](O)[C@@H](NC(=O)c4ccccc4)c4ccccc4)C(C)=C1C3(C)C)[C@]1(OC(C)=O)CO[C@@H]1C[C@@H]2O [Paclitaxel, reference compound]",Solubilized,[1],<0.2 mg/mL
same,prodrug:caprolactone,[1],<1 mmol:mol
same,chromatographic logP,physchem; pH 7,4.4 ± 0.06
CCCCCC(=O)O[C@@H](C(=O)O[C@H]1C[C@@]2(O)[C@@H](OC(=O)c3ccccc3)[C@@H]3[C@]4(OC(C)=O)CO[C@@H]4C[C@H](O)[C@@]3(C)C(=O)[C@H](OC(C)=O)C(=C1C)C2(C)C)[C@@H](NC(=O)c1ccccc1)c1ccccc1 [Prodrug 5a],Solubilized,[1],1.42 ± 0.11 mg/mL
same,prodrug w/w %,[1],17.8%
same,prodrug:caprolactone,[1],33.4 mmol:mol
same,Diameter (intensity),[1],32 ± 0 nm
same,Solubilized (in parentheses),[1],> 3 mg/mL
same,log Po/w,[2],4.45 ± 0.03
CCCCCCCCCCCC(=O)O[C@H]1C[C@H]2OC[C@@]2(OC(C)=O)[C@H]2[C@H](OC(=O)c3ccccc3)[C@]3(O)C[C@H](OC(=O)[C@H](O)[C@@H](NC(=O)c4ccccc4)c4ccccc4)C(C)=C([C@@H](OC(C)=O)C(=O)[C@]12C)C3(C)C [Prodrug 4b],Solubilized,[1],1.47 ± 0.03 mg/mL
same,prodrug w/w %,[1],16.4%
same,prodrug:caprolactone,[1],31.8 mmol:mol
same,Diameter (intensity),[1],27 ± 5 nm
same,Solubilized (in parentheses),[1],2.2 ± 0.5 mg/mL
same,log Po/w,[2],4.59 ± 0.18
"COC1C=CC=C(C)C(=O)NC2=CC(=O)C(NCCO)=C(CC(C)CC(OC)C(O)C(C)C=C(C)C1OC(N)=O)C2=O (stereo not shown) [17-hydroxyethylamino-17-demethoxygeldanamycin, reference compound]",IC50,[6],73 nM
CCCCCCCCCCCC(=O)OCCNC1=C2CC(C)CC(OC)C(O)C(C)C=C(C)C(OC(N)=O)C(OC)C=CC=C(C)C(=O)NC(=CC1=O)C2=O (stereo not shown) [17-aminoethyl-dodeconate-17-demethoxygeldanamycin],Log Po/w,[2],4.16
same,Diff Coef,[9],2.55 × 10^−20 cm2/s
same,w/w drug/carrier,[9],21 ± 2%
same,Conc,[9],1600 µg/mL
same,time after which almost/substantially all the drug is released,[9],about 8 days
same,fraction released,[9]; time 0 days,0
same,fraction released,[9]; time 0.83 days,0.1688
same,fraction released,[9]; time 2 days,0.2909
same,fraction released,[9]; time 4 days,0.3431
same,fraction released,[9]; time 6 days,0.8531
same,fraction released,[9]; time 8 days,0.9878
CO[C@H]1/C=C\C=C(/C)C(=O)NC2=CC(=O)C(NCCN(C)C)=C(C[C@@H](C)C[C@H](OC)[C@H](O)[C@@H](C)/C=C(\C)[C@@H]1OC(N)=O)C2=O [Prodrug 17DMAG],MTD dog,[4],8 mg/m^2
"CCCCCCCCCCCCCCCC(=O)O[C@H]1C[C@H]2OC[C@@]2(OC(C)=O)[C@H]2[C@H](OC(=O)c3ccccc3)[C@]3(O)C[C@H](OC(=O)[C@H](O)[C@@H](NC(=O)c4ccccc4)c4ccccc4)C(C)=C([C@@H](OC(C)=O)C(=O)[C@]12C)C3(C)C [Prodrug 4c, 7-palmitate-paclitaxel]",Solubilized,[1],1.62 ± 0.03 mg/mL
same,prodrug w/w %,[1],21.6%
same,prodrug:caprolactone,[1],33.3 mmol:mol
same,Diameter (intensity),[1],44 ± 2 nm
same,Solubilized (in parentheses),[1],3.0 ± 0.9 mg/mL
same,log Po/w,[2],4.48 ± 0.06
CCCCCCCCCCCCCCCCNC1=C2CC(C)CC(OC)C(O)C(C)C=C(C)C(OC(N)=O)C(OC)C=CC=C(C)C(=O)NC(=CC1=O)C2=O (stereo not shown) [17-amino-hexyldecyl-17-demethoxygeldanamycin],Log Po/w,[2],4.30
same,Diff Coef,[9],1.69 × 10^−20 cm2/s
same,w/w drug/carrier,[9],20 ± 2%
same,Conc,[9],1500 µg/mL
same,time after which almost/substantially all the drug is released,[9],about 12 days
same,fraction released,[9]; time 0 days,0
same,fraction released,[9]; time 0.83 days,0
same,fraction released,[9]; time 2 days,0.1398
same,fraction released,[9]; time 4 days,0.3551
same,fraction released,[9]; time 6 days,0.3985
same,fraction released,[9]; time 8 days,0.6364
same,fraction released,[9]; time 10 days,0.7517
same,fraction released,[9]; time 12 days,0.8238
CCCCCC(=O)OCCNC1=C2CC(C)CC(OC)C(O)C(C)C=C(C)C(OC(N)=O)C(OC)C=CC=C(C)C(=O)NC(=CC1=O)C2=O (stereo not shown) [17-aminoethyl-hexonate-17-demethoxygeldanamycin],IC50,[6],240 nM
CCCCCCCCCCCC(=O)OC(C(=O)OC1CC2(O)C(OC(=O)c3ccccc3)C3C4(OC(C)=O)COC4CC(O)C3(C)C(=O)C(OC(C)=O)C(=C1C)C2(C)C)C(NC(=O)c1ccccc1)c1ccccc1 (stereo not shown) [Prodrug 5b],Solubilized,[1],1.57 ± 0.02 mg/mL
same,prodrug w/w %,[1],17.3%
same,prodrug:caprolactone,[1],34.0 mmol:mol
same,Diameter (intensity),[1],28 ± 0 nm
same,Solubilized (in parentheses),[1],> 3 mg/mL
same,log Po/w,[2],4.49 ± 0.03
